# Molecular target: T1, human μ-opioid receptor (Homo sapiens, UniProt P35372)
# T1 construct: purchased NEN, Zaventem, Belgium RB-HOM; host or cells: CHO-K1 cells (membrane preparation)
# Assay: Affinity to the human μ-opioid receptor ([3H]-naloxone displacement, SPA)
# Assay type: binding
# Details: compound 1 μmol/l; 1 nmol/l [3H]-naloxone; CHO-K1 membrane preparation
# Method: III. Method for Determining the Affinity to the Human μ-Opioid Receptor
# The receptor affinity to the human μ-opioid receptor is determined in a homogeneous batch in microtitre plates. In this case, dilution series of the respective substituted 5,6,7,8-tetrahydro-imidazo[1,2-a]pyridin-2-ylamine compound of the general formula I to be tested are incubated with a receptor membrane preparation (15-40 μg of protein per 250 μl of the incubation batch) of CHO-K1 cells which express the human μ-opioid receptor (μ-opiate receptor) (RB-HOM receptor membrane preparation from NEN, Zaventem, Belgium) in the presence of 1 nmol/l of the radioactive ligands [^3H]-naloxone (NET719, NEN, Zaventem, Belgium) and also 1 mg of WGA SPA beads (wheat germ agglutinin SPA beads from Amersham Pharmacia, Freiburg, Germany) in a total volume of 250 μl at room temperature for 90 minutes. 50 mmol/l tris-HCl are used as an incubation buffer with 0.05% by weight of sodium azide and 0.06% by weight of bovine serum albumin. 25 μmol/l naloxone are also added to determine the non-specific bond. At the end of the 90 minute incubation period, the microtitre plates are centrifuged off for 20 minutes at 1000 g and the radioactivity is measured with a β-counter (Microbeta-Trilux, PerkinElmer Wallac, Freiburg, Germany. The percentage of displacement of the radioactive ligand from its bond to the human μ-opiate receptor at a concentration of 1 μmol/l of the compound to be tested is determined and indicated as a % inhibition of the specific bond.
# T1 sequence (P35372 whole entry): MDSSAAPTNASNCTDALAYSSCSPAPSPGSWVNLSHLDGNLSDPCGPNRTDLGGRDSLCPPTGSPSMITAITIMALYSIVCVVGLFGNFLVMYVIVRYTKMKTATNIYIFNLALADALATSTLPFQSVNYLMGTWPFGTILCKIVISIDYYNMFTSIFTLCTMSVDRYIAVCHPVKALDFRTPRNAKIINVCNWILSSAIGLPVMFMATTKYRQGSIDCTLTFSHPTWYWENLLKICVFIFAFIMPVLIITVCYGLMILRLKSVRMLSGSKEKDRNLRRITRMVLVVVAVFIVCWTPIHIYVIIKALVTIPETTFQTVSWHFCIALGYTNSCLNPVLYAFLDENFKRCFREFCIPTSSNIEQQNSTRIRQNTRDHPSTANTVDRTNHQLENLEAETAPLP
row,Structure (SMILES),μ-opioid receptor (man) (% inhibition) [%]
1,"CCCCN(C(=O)c1cccc(Cl)c1)c1nc2n(c1C(=O)NCCSCc1c(Cl)cccc1Cl)CCCC2 [Example 95, 2-[butyl-(3-chloro-benzoyl)-amino]-5,6,7,8-tetrahydro-imidazo[1,2-a]pyridine-3-carboxylic acid [2-(2,6-dichlor-benzylsulphanyl)-ethyl]-amide]",53

# Same assay, conditions: compound 1 μmol/l; 1 nmol/l [3H]-naloxone; CHO-K1 membrane preparation; read-out: μ-opioid receptor (man) (% inhibition)
row,Structure (SMILES),inhibition at 1 µM [%]
1,"CCCCN(C(=O)c1cccc(Cl)c1)c1nc2n(c1C(=O)Nc1ccc3c(c1)OCCO3)CCCC2 [Example 181, 2-[butyl-(3-chloro-benzoyl)-amino]-5,6,7,8-tetrahydro-imidazo[1,2-a]pyridine-3-carboxylic acid (2,3-dihydro-benzo[1,4]dioxin-6-yl)-amide]",58
2,"CC(CCc1ccccc1)NC(=O)c1c(N(C)C(=O)c2cccc3ccccc23)nc2n1CCCC2 (centres unmarked) [Example 112, 2-[methyl-(naphthalene-1-carbonyl)-amino]-5,6,7,8-tetrahydro-imidazo[1,2-a]pyridine-3-carboxylic acid (1-methyl-3-phenyl-propyl)-amide]",51
3,"CN(C(=O)c1cccc(Cl)c1)c1nc2n(c1C(=O)N1CCN(CCc3ccccc3)CC1)CCCC2 [Example 106, 3-chloro-N-methyl-N-[3-(4-phenethyl-piperazine-1-carbonyl)-5,6,7,8-tetrahydro-imidazo[1,2-a]pyridin-2-yl]-benzamide]",30
4,"CCCCN(C(=O)c1ccc(F)c(F)c1)c1nc2n(c1C(=O)NCCC(c1ccccc1)c1ccccc1)CCCC2 [Example 180, 2-[butyl-(3,4-difluoro-benzoyl)-amino]-5,6,7,8-tetrahydro-imidazo[1,2-a]pyridine-3-carboxylic acid (3,3-diphenyl-propyl)-amide]",47
5,"CN(C(=O)c1cccc2ccccc12)c1nc2n(c1C(=O)NCc1cc(C(F)(F)F)cc(C(F)(F)F)c1)CCCC2 [Example 15, 2-[Methyl-(naphthalene-1-carbonyl)-amino]-5,6,7,8-tetrahydro-imidazo[1,2-a]pyridine-3-carboxylic acid 3,5-bis-trifluoromethyl-benzylamide]",35
6,"Cc1cc(Cl)cc(Cl)c1CNC(=O)c1c(N(C)C(=O)c2ccccc2)nc2n1CCCC2 [Example 188, 2-(benzoyl-methyl-amino)-5,6,7,8-tetrahydro-imidazo[1,2-a]pyridine-3-carboxylic acid 2,4-dichloro-6-methyl-benzylamide]",59
7,"CN(C(=O)Cc1ccccc1)c1nc2n(c1C(=O)N1CCN(c3ccccc3)CC1)CCCC2 [Example 186, N-methyl-2-phenyl-N-[3-(4-phenyl-piperazine-1-carbonyl)-5,6,7,8-tetrahydro-imidazo[1,2-a]pyridin-2-yl]-acetamide]",48
